Assay results as given in patent US6121320A, “Combination anti-leukemic therapy by utilizing suramin and biologic response modifiers” (The University of Kentucky Research Foundation, priority 1998, dated 2000).
Where two headings read alike, the source gives them in different places.

Columns and labels:
[1] = system: HL-60; assay: HL-60 leukemia cell proliferation (MTT), single agents and combinations, CI-isobologram analysis; type: cell-based, human
Procedure: (§1) Assays of proliferation consist of cell proliferation (3H-thymidine) assay as previously described or the MTT assay after 3-5 days of exposure to the agents. Cell proliferation is assayed using a modification of the original MTT calorimetric assay described by Mosmann (53). To better delineate the issues of proliferation (and inhibition thereof) versus differentiation, which is induced by certain of the agents being proposed for testing, an alternative method would utilize simple cell counting (Courter, Inc.) of aliquots at 3 and 5 days of continuous exposure with concomitant analysis of induced differentiation by cell morphology (NBT-positive) conducted. The percentage of differentiated cells in liquid culture determined by the NBT reduction test (as described, (54) allows for an estimate of the total number of cells which are still blast cells and therefore considered capable of continued leukemogenic growth. The most promising combinations are used to examine de novo acute myeloid leukemia patient samples in like fashion.
The antigrowth factor activity of suramin was tested alone and in combination with all-trans retinoic acid (ATRA) against the human leukemic line HL-60 or its ATRA resistant subclone, HL-60R, to assess if an agent with the ability to interrupt putative autocrine driven leukemic cell growth could reestablish sensitivity to ATRA. […] Synergy or antagonism between combinations was then assessed using a combination-index CI-isobolo gram method.
Cell lines chosen for this study include the ATRA sensitive human acute leukemia HL-60 and the ATRA resistant subclone, HL-60R. While originally described as an acute promyelocytic cell line, more recent work categorizes this line as an acute myelogenous leukemia. The sensitivity of these cell lines to ATRA and suramin alone as single agents has been assessed. […] The assays of proliferation consist of cell proliferation after 3-5 days of exposure to the agents. Cell proliferation is assayed using a modification of the original MTT calorimetric assay described by Mossman, et al. In similar fashion, a dose response curve to cytosine arabinoside has been generated. Using the IC50 values for each agent alone allows selection of reasonable drug combinations. The data software program, "Dose effect analysis with microcomputers" (BioSoft, Inc.) developed by Dr. Chou, et al. is utilized. This computer analysis program allows the assessment of drug combinations for synergistic, additive, or antagonistic interactions.

[2] = system: HL-60; conditions: HL-60 in vitro, reference 48; cited from earlier work
[3] = system: Mo7E; assay: Proliferation of GM-CSF dependent Mo7E cells; type: cell-based, human; conditions: read-out: Half-maximal inhibition of Mo/7E growth (GM-CSF dependent)
From the text: control. Similarly, cell proliferating of GM-CSF
dependent (Mo7E) and autonomously proliferation (GM-CSF
independent) human leukemia cells (HL-60) gave half-
maximal inhibition of growth. Results are expressed as […]

[4] = system: NB4; assay: Activity against NB4 leukemia cells; type: cell-based, human
Procedure: While originally described as an acute promyelocytic cell line, more recent work categorizes this line as an acute myelogenous leukemia.
as §1

[5] = system: follicular lymphoma; conditions: evaluable follicular lymphoma patients; cited from earlier work
[6] = system: HL-60R; assay: HL-60R (ATRA resistant subclone) proliferation (MTT), single agents and combinations; type: cell-based, human
Procedure: as §1, with “fashion. […]” for “fashion.”
Cell lines chosen for this study include the ATRA sensitive human acute leukemia HL-60 and the ATRA resistant subclone, HL-60R. […] The sensitivity of these cell lines to ATRA and suramin alone as single agents has been assessed. […]

[7] = target: rhGM-CSF (Homo sapiens, UniProt P04141); assay: Competition for nucleotide photoprobe incorporation into rhGM-CSF; type: binding
Sequence of rhGM-CSF (P04141 18-144): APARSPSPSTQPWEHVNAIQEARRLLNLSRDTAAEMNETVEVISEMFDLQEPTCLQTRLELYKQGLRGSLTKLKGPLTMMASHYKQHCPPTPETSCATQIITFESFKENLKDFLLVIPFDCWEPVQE

[8] = system: acute promyelocytic leukemia (APL); conditions: cited from earlier work
[9] = Homo sapiens, HL-60, autonomously proliferating cells, read-out: Half-maximal inhibition of HL-60 growth (GM-CSF independent)
[10] = photoprobe incorporation into rhGM-CSF compared to control, read-out: Half-maximal inhibition of nucleotide binding
[11] = Homo sapiens, HL-60, 120 h, read-out: Fractional Inhibition

Question: For `Cc1ccc(C(=O)Nc2ccc(S(=O)(=O)O)c3cc(S(=O)(=O)O)cc(S(=O)(=O)O)c23)cc1NC(=O)c1cccc(NC(=O)Nc2cccc(C(=O)Nc3cc(C(=O)Nc4ccc(S(=O)(=O)O)c5cc(S(=O)(=O)O)cc(S(=O)(=O)O)c45)ccc3C)c2)c1` [suramin], which “m (slope of the median-effect plot)” value ([1]; HL60, 5 days exposure) is on record?
Answer: 1.725

Question: And the “Inhibition of growth, in words” value ([1]; HL-60)?
Answer: active

Question: What about the IC50 ([1]; Homo sapiens, HL-60, 120 h, HL60, 5 days exposure, doses printed in μM, read-out: Dm (antilog of x-intercept of the median-effect plot, the potency (IC50))) of the same molecule?
Answer: 38.7 µM

Question: What about the inhibition at 3.5 µM ([1]; Homo sapiens, HL-60, 120 h, suramin 3.5 μM, HL60, 5 days exposure, read-out: Fractional Inhibition) of the same molecule?
Answer: 2%

Question: What about the inhibition at 7 µM ([1]; Homo sapiens, HL-60, 120 h, suramin 7.0 μM, HL60, 5 days exposure, read-out: Fractional Inhibition) of the same molecule?
Answer: 4.7%

Question: And the inhibition at 14 µM ([1]; Homo sapiens, HL-60, 120 h, suramin 14.0 μM, HL60, 5 days exposure, read-out: Fractional Inhibition)?
Answer: 9.3%

Question: What about the inhibition at 28 µM ([1]; Homo sapiens, HL-60, 120 h, suramin 28.0 μM, HL60, 5 days exposure, read-out: Fractional Inhibition) of the same molecule?
Answer: 41.9%

Question: What about the inhibition at 56 µM ([1]; Homo sapiens, HL-60, 120 h, suramin 56.0 μM, HL60, 5 days exposure, read-out: Fractional Inhibition) of the same molecule?
Answer: 67.8%

Question: And the IC50 [1, 9]?
Answer: 38 µM

Question: What about the “Suppression of proliferation, in words” value [2] of the same molecule?
Answer: strongly suppress

Question: And the IC50 ([3]; Homo sapiens, Mo7e)?
Answer: 68 µM

Question: And the “Activity, in words” value [4]?
Answer: active

Question: And the “Patients achieving partial remission” value [5]?
Answer: five of nine

Question: And the “Inhibition of growth, in words” value ([6]; HL-60R)?
Answer: active

Question: What about the IC50 [7] of the same molecule?
Answer: 2.5 µM

Question: For `O=C(Nc1cccc(C(=O)Nc2ccc(S(=O)(=O)O)c3cc(S(=O)(=O)O)cc(S(=O)(=O)O)c23)c1)Nc1cccc(C(=O)Nc2ccc(S(=O)(=O)O)c3cc(S(=O)(=O)O)cc(S(=O)(=O)O)c23)c1` [NF023], which IC50 [1, 9] is on record?
Answer: 175 µM

Question: What about the IC50 ([3]; Homo sapiens, Mo7e) of the same molecule?
Answer: 102 µM

Question: What about the IC50 [7, 10] of the same molecule?
Answer: 5 µM

Question: With `CC1=C(/C=C/C(C)=C/C=C/C(C)=C/C(=O)O)C(C)(C)CCC1` [ATRA, all-trans retinoic acid] as the molecule, how does the “m (slope of the median-effect plot)” value ([1]; HL60, 5 days exposure) read?
Answer: .2729

Question: And the IC50 ([1]; Homo sapiens, HL-60, 120 h, read-out: Dm (antilog of x-intercept of the median-effect plot, the potency (IC50)))?
Answer: 0.00022 µM

Question: And the inhibition at 0.001 µM [1, 11]?
Answer: 56.1%

Question: And the inhibition at 0.01 µM [1, 11]?
Answer: 77.7%

Question: What about the inhibition at 0.02 µM [1, 11] of the same molecule?
Answer: 79%

Question: And the inhibition at 0.04 µM [1, 11]?
Answer: 82.3%

Question: What about the inhibition at 0.08 µM [1, 11] of the same molecule?
Answer: 82.6%

Question: And the inhibition at 0.16 µM [1, 11]?
Answer: 83.5%

Question: What about the “Patients resistant to ATRA at diagnosis or relapsing” value ([8]; APL) of the same molecule?
Answer: 30-40%

Question: What about the Complete remission rate ([8]; ATRA as a single agent in APL) of the same molecule?
Answer: ≥ 70%

Question: And the “Patients with long term remissions” value ([8]; ATRA treatment followed by chemotherapy)?
Answer: 60%

Question: And the “Patients with ATRA syndrome” value ([8]; subset of APL patients, fever, respiratory distress, chest x-ray abnormalities, weight gain)?
Answer: 5-20%

Question: Which results are given for `O=C(Nc1cc(C(=O)Nc2ccc(S(=O)(=O)O)cc2)cc(C(=O)Nc2ccc(S(=O)(=O)O)cc2)c1)Nc1cc(C(=O)Nc2ccc(S(=O)(=O)O)cc2)cc(C(=O)Nc2ccc(S(=O)(=O)O)cc2)c1` [NF110]?
Answer: Enhanced activity ([1]; against HL-60, relative to suramin): 5-10 fold; IC50 ([1]; autonomously proliferating cells, read-out: Half-maximal inhibition of HL-60 growth (GM-CSF independent)): 6 µM; IC50 [3]: 52 µM; Enhanced activity ([6]; against HL-60R, relative to suramin): 5-10 fold; IC50 [7, 10]: 1.5 µM
